Read-outs that look alike come from different tables or passages of the source.
How the values were obtained:
[1] = system: RPB1 (RNAPII) in PC3 cells; test: RPB1 degradation in PC3 cells under hypoxia, immunocytochemistry and western blot; format: cell-based, human; details: PC3, hypoxic (1% O2), 10 mM WZB117 plus 3 mM compound 1 (so in the source); μM)
Description: (§1) Western blot analysis. Whole cell lysates were prepared by adding lysis buffer [4% SDS, 20% glycerol, 10% 2-mercaptoethanol, 0.004% bromophenol blue, 0.125 M Tris-HCl (pH 6.8)] to the cell pellets for 30 minutes in ice followed by centrifugation at 12,000×g for 10 minutes then boiling for 5 minutes. For isolation of cytosolic and mitochondrial fractions of cytochrome C, cell pellets were resuspended in CLAMI buffer (250 mM sucrose, 70 mM KCl, […] digitonin in 1×PBS, protease inhibitor cocktail (1 tablet/10 ml CLAMI buffer)) then incubated on ice for 5 minutes. After centrifugation at 12,000×g for 5 minutes at 4° C., supernatant (cytoplasmic fraction) was collected and the pellet resuspended in lysis buffer as described above. Proteins were then separated by SDS-PAGE and transferred to nitrocellulose membranes (Bio-Rad). […] Antibody-protein complexes were detected using enhanced chemiluminescence (ECL) immunoblotting detection reagent (EMD Millipore).
(§2) Immunocytochemistry and cytochemistry. […] Glucose uptake was monitored by incubating cells in 200 μM 2-NBDG (ThermoFisher) for 6 hours prior to fixation. Fluorescence was observed under the Nikon Eclipse TE200 Inverted microscope (Nikon Instruments Inc., Melville, N.Y., USA). […] Rpb1 levels were measured using the MEASURE feature of ImageJ where all the background signals were subtracted from the intergrated density of nuclear Rpb1.

HeLa cells = test: Apoptosis signaling in HeLa cells (nuclear fragmentation, cytochrome c, caspase 3, PARP1); format: cell-based, human; details: co-treatment with higher concentrations of SP
Description: (§3) Western blot analysis. Whole cell lysates were prepared by adding lysis buffer [4% SDS, 20% glycerol, 10% 2-mercaptoethanol, 0.004% bromophenol blue, 0.125 M Tris-HCl (pH 6.8)] to the cell pellets for 30 minutes in ice followed by centrifugation at 12,000×g for 10 minutes then boiling for 5 minutes. For isolation of cytosolic and mitochondrial fractions of cytochrome C, cell pellets were resuspended in CLAMI buffer (250 mM sucrose, 70 mM KCl, […] digitonin in 1×PBS, protease inhibitor cocktail (1 tablet/10 ml CLAMI buffer)) then incubated on ice for 5 minutes. After centrifugation at 12,000×g for 5 minutes at 4° C., supernatant (cytoplasmic fraction) was collected and the pellet resuspended in lysis buffer as described above. Proteins were then separated by SDS-PAGE and transferred to nitrocellulose membranes (Bio-Rad). After blocking at room temperature for 1 h, membranes were incubated at 4′C overnight with the primary antibodies including anti-Rpb1 (Santa Cruz Biotechnology), anti-XPB (Biotechne), anti-Actin (Developmental Studies Hybridoma Bank), anti-GAPDH (Santa Cruz Biotechnology), anti-cytochrome C (Santa Cruz Biotechnology), anti-PARP1 (Santa Cruz Biotechnology), anti-cleaved caspase 3 (Cell Signaling Technology), anti-VDAC (ProteinTech), anti-HIF-1[…] (BD sciences), and anti-GLUT1 (Santa Cruz Biotechnology) antibodies followed by incubation with horseradish peroxidase-conjugated anti-mouse or anti-rabbit IgG (GE Healthcare) at room temperature for 2 hours. Antibody-protein complexes were detected using enhanced chemiluminescence (ECL) immunoblotting detection reagent (EMD Millipore).
Immunocytochemistry and cytochemistry. HeLa or PC3 cells (2×10^5) were seeded on a MatTek glass bottom culture dish (Fisher Scientific, Pittsburgh, Pa., USA) and allowed to adhere for 24 h. Cells were then treated with either DMSO or drugs for 6 or 24 h then fixed with 4% paraformaldehyde, permeabilized using 1×PBS with 0.5% triton X 100 then probed for endogenous RNA Polymerase II catalytic subunit Rpb1 or HIF-1α using anti-RNAPII (Santa Cruz Biotechnology) and anti-HIF-1α (BD sciences) antibodies, respectively. Detection was then done using anti-mouse Alexa Fluor 488 (Invitrogen). For nuclear staining, fixed and permeabilized cells were incubated in DAPI (ThermoFisher) or Hoechst 33258 (Sigma) for 30 minutes prior to imaging. Glucose uptake was monitored by incubating cells in 200 μM 2-NBDG (ThermoFisher) for 6 hours prior to fixation. Fluorescence was observed under the Nikon Eclipse TE200 Inverted microscope (Nikon Instruments Inc., Melville, N.Y., USA). ImageJ software (NIH, Bethesda, Md., USA; http://imagej.nih.gov/ij/index.html) was used to measure intracellular protein levels in immuno-cytochemistry samples (Li et al. (2015) Toxicological Sciences: an Official Journal of the Society of Toxicology 143:196-208). Rpb1 levels were measured using the MEASURE feature of ImageJ where all the background signals were subtracted from the intergrated density of nuclear Rpb1.

XPB = biological target: T1, XPB (Homo sapiens, UniProt P19447); test: XPB degradation in cells, western blot; format: cell-based; details: 10 mM SP (so in the source)
T1 construct: spironolactone induces the degradation of endogenous XPB in cells; endogenous in cells
Description: as §1

[2] = system: RPB1 (catalytic subunit of RNAPII); test: RPB1 (RNAPII) degradation in HeLa cells, immunostaining and western blot; format: cell-based, human
Description: as §3, §2

HEK 293T cells = test: HEK293T cell proliferation assay ([3H]-thymidine incorporation); format: cell-based, human; details: Homo sapiens; anti-proliferative activity, HEK 293T cells, 24 h drug exposure; read-out: IC50 ± SEM
Description: Cells and culture conditions. Primary astrocytes (Lonza, Walkersville, Md.; ABM™ Basal Media with AGM™ SingleQuots™ Supplement Pack), fibroblast (ATCC; Fibroblast Basal Medium (ATCC© PCS-201-030™) with Fibroblast Growth Kit-Serum-free (ATCC© PCS-201-040™)), airway epithelial cell (ATCC; Airway Epithelial Cell Basal Medium (ATCC© PCS-300-030™) with Bronchial Epithelial Cell Growth Kit (ATCC© PCS-300-040™)), renal proximal tubule (ATCC; Renal Epithelial Cell Basal Medium (ATCC© PCS-400-030™) with Renal Epithelial Cell Growth Kit (ATCC© PCS-400-040™)), prostate epithelial cell (Lonza; PrEGM™ BulletKit™) and mammary epithelial cell (Lonza; MEBM™ BulletKit™) were kept in a humidified incubator at 37° C. adjusted to 5% CO2. Prostate (PC3, LNCaP, DU-145), breast (MDA-MB-231, MDA-MB-453, SK-BR-3), head and neck (A253, Detroit 562, SCC-25), melanoma (SK-Mel-3, SK-Mel-1, RPMI-7951), pancreatic (CfPAC-1, BxPC3, SW1990), lung (A549, NCI-H1299, NCI-H1437) and liver (SNU-475, SK-HEP-1, SNU-387) cancer cell lines were obtained from ATCC and cultured in their respective media (prostate cells: RPMI-1640, MDA-MB-231: RPMI-1640, MDA-MB-453: Leibovitz's L-15, SK-BR-3: McCoy's 5a, A253: McCoy's 5a, Detroit 562: EMEM, SCC-25: DMEM, SK-Mel-3: McCoy's 5a, SK-Mel-1: EMEM, RPMI-7951: EMEM), CfPAC-1: IMDM, BxPC3: RPMI-1640, SW1990: Leibovitz's L-15), A549: F-12K, NCI-H1299: RPMI-1640, NCI-H1437: RPMI-1640, SNU-475: RPMI-1640, SK-HEP-1: EMEM, SNU-387: RPMI-1640. All media were supplemented with 10% (vol/vol) filtered fetal bovine serum (FBS, Invitrogen, Carlsbad, Calif.), 1% penicillin/streptomycin (Invitrogen) and maintained in a humidified incubator at 37° C. with 5% CO2 except for MDA-MB-453 and SW1990 grown at 37° C. without CO2 control. Wild type (ATCC) and C342T XPB knock-in cells (named T7115) of Human Embryonic Kidney 293T (HEK293T), HeLa (ATCC) were cultured in DMEM (GIBCO) with 10% (vol/vol) filtered fetal bovine serum (FBS, Invitrogen, Carlsbad, Calif.), 1% penicillin/streptomycin (Invitrogen).
(§4) Proliferation and viability assays. [^3H]-thymidine incorporation. HEK293T cells (10,000 cells/well) were seeded into 96-well plates then cultured in DMEM plus 10% FBS and 1% penicillin/streptomycin at 37° C. with 5% CO2 overnight. Drugs were added at indicated concentrations and incubation was continued for an additional 24 h. For hypoxia, PC3 (5,000 cells/well) were exposed to 1% O2 (Airgas) in a humidified hypoxia chamber (Billups-Rothenberg) in 37° C. for 48 h prior to drug exposure for 48 h. Treated cells were then pulsed using an aliquot of 1 μCi of [^3H]-thymidine (Perkin Elmer) per well for an additional 6 h. Radiolabelled cells were harvested onto a printed Filtermat A glass fiber filter (Perkin Elmer) using a Tomtec Harvester 96 Mach III M. Betaplate Scint (Perkin Elmer) scintillation fluid was added to radiolabelled filters followed by scintillation counting on Microbeta2 LumiJET Microplate Counter (Perkin Elmer).

MCF-7 = MCF-7 proliferation under hypoxia ([3H]-thymidine incorporation); format: cell-based, human; details: MCF-7, 1% O2, 48 h post treatment
[3] = system: T7115 (C342T XPB knock-in HEK293T cells); test: Proliferation of XPB C342T knock-in cell line T7115 ([3H]-thymidine incorporation); format: cell-based, human; details: C342T XPB knock-in versus isogenic WT 293T
Description: (§5) Cells and culture conditions. Primary astrocytes (Lonza, Walkersville, Md.; ABM™ Basal Media with AGM™ SingleQuots™ Supplement Pack), fibroblast (ATCC; Fibroblast Basal Medium (ATCC© PCS-201-030™) with Fibroblast Growth Kit-Serum-free (ATCC© PCS-201-040™)), airway epithelial cell (ATCC; Airway Epithelial Cell Basal Medium (ATCC© PCS-300-030™) with Bronchial Epithelial Cell Growth Kit (ATCC© PCS-300-040™)), renal proximal tubule (ATCC; Renal Epithelial Cell Basal Medium (ATCC© PCS-400-030™) with Renal Epithelial Cell Growth Kit (ATCC© PCS-400-040™)), prostate epithelial cell (Lonza; PrEGM™ BulletKit™) and mammary epithelial cell (Lonza; MEBM™ BulletKit™) were kept in a humidified incubator at 37° C. adjusted to 5% CO2. […]

MDA MB231 cells = test: MDA MB231 proliferation under hypoxia ([3H]-thymidine incorporation); format: cell-based, human; details: MDA MB231, 1% O2, 48 h post treatment
PC3 cells = test: PC3 proliferation under hypoxia or normoxia ([3H]-thymidine incorporation); format: cell-based, human; details: for IC50: Homo sapiens, PC-3, 48 h, 48 h post treatment, read-out: IC50
Description: as §4

HeLa = HeLa proliferation under hypoxia ([3H]-thymidine incorporation); format: cell-based, human; details: 1% O2, 48 h post treatment
TFIIH = biological target: T2, TFIIH (Homo sapiens, UniProt P19447); test: DNA-dependent ATPase activity assay of TFIIH; format: biochemical; details: 200 nM triptolide
T2 construct: made in house
Description: ATPase activity assay. The TFIIH complex was purified and its DNA-dependent ATPase assay was performed as previously described (Titov et al. (2011) Nat. Chem. Biol. 7:182-88). Briefly, a 10-μl reaction mixture contained 20 mM Tris (pH 7.9), 4 mM MgCl2, 1 μM of ATP, 0.1 μCi [^γ-^32P]ATP (3000 Ci/mmol), 100 μg/ml BSA, 100 nM RNA Polymerase II promoter positive control DNA, 1 nM TFIIH and indicated concentrations of triptolide or its analogs. The reactions were started by either addition of TFIIH for 2 hr and stopped by addition of 2 μl of 0.5 M EDTA. An aliquot of 1 μl reaction mixture was spotted on PEI-cellulose (sigma) and the chromatogram was developed with 0.5 M LiCi and 1 M HCOOH. The percent of ATP hydrolysis was quantified using a Typhoon FLA 9500 Variable Imager (GE Healthcare).

Rpb1 in 293T WT cells = test: RPB1 degradation in 293T WT cells, western blot; format: cell-based, human; details: 0.1 mM triptolide (so in the source); 0.1 μM)
Description: as §5
(§6) Western blot analysis. […] Antibody-protein complexes were detected using enhanced chemiluminescence (ECL) immunoblotting detection reagent (EMD Millipore).

[4] = lethal case dosed with 18 mg/m2 F60008; cited from earlier work
HepG2 = HepG2 proliferation under hypoxia ([3H]-thymidine incorporation); format: cell-based, human; details: HepG2, 1% O2, 48 h post treatment
[5] = system: RPB1 in C342T XPB mutant cell line; test: RPB1 degradation in C342T XPB knock-in cells, western blot; format: cell-based, human; details: XPB C342T cells, 0.1 mM triptolide (so in the source); 0.1 μM)
Description: as §5, §6

T1 sequence (P19447 whole entry): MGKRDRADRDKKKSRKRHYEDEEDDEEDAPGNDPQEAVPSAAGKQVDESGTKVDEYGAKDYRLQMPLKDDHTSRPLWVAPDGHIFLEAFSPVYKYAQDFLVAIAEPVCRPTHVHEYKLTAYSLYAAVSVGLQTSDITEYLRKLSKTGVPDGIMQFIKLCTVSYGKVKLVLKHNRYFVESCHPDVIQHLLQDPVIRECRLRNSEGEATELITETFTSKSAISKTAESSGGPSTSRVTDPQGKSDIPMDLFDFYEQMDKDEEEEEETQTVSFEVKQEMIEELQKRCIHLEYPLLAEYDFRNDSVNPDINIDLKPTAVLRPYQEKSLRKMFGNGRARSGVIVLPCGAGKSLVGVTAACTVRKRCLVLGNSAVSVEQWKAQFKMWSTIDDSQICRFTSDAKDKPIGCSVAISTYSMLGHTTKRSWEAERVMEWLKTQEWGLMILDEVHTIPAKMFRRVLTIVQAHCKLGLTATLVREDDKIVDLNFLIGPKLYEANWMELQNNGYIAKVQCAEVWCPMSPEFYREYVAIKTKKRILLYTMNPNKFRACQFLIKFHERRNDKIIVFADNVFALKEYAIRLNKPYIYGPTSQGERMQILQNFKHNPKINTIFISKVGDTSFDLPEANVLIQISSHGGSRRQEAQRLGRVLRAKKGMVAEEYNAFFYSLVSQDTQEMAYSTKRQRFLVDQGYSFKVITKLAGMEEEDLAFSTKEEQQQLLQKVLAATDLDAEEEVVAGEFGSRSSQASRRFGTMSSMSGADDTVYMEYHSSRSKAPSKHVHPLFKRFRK

## O=C(Oc1cccc(F)c1OC(=O)c1cccc(O)c1)c1cccc(O)c1 [WZB117, reference compound]
[1]
  effect on compound 1-induced RNAPII degradation: abolished the rapid degradation of endogenous RNAPII

## CC(=O)S[C@@H]1CC2=CC(=O)CC[C@]2(C)[C@H]2CC[C@@]3(C)[C@@H](CC[C@@]34CCC(=O)O4)[C@H]12 [spironolactone]
HeLa cells
  effect on compound 1-induced PARP1 cleavage: prevented PARP1 cleavage
XPB
  degradation of XPB: caused degradation of the majority of XPB
[2]; 10 mM spironolactone alone (so in the source); 10 μM)
  endogenous RNAPII (RPB1) level: do not affect protein levels
[2]; pre-treatment with 10 mM spironolactone (so in the source), then 1 mM compound 1
  rescue of RNAPII from compound 1-induced degradation: rescues endogenous RNAPII

## CC(C)[C@]12O[C@H]1[C@@H]1O[C@]13[C@]1(O[C@H]1C[C@H]1C4=C(CC[C@@]13C)C(=O)OC4)[C@@H]2O [TPL, (1S,2S,4S,5S,7R,8R,9S,11S,13 S)-8-hydroxy-1-methyl-7-propan-2-yl-3,6,10,16 tetraoxaheptacyclo[11.7.0.02,4.02,9.05,7.09,11.014,18] icos-14(18)-en-17-one, reference compound]
HEK 293T cells
  IC50: 5.6 nM
MCF-7
  effect of hypoxia on anti-proliferative effect: modest anti-proliferative effect
[3]
  sensitivity of T7115 mutant line (proliferation): resistant
MDA MB231 cells
  effect of hypoxia on anti-proliferative effect: modest anti-proliferative effect
PC3 cells; PC3, hypoxic conditions (1% O2)
  IC50: 1.5 nM
PC3 cells; PC3, normoxic conditions (20% O2)
  IC50: 4.5 nM
PC3 cells; PC3, hypoxia versus normoxia
  fold enhancement of anti-proliferative effect during hypoxia: three-fold
HeLa
  effect of hypoxia on anti-proliferative effect: modest anti-proliferative effect
TFIIH
  inhibition of ATPase activity of TFIIH: effectively suppresses activity
TFIIH; listed as triptolide
  inhibition of ATPase activity of TFIIH: nearly completely inhibited
Rpb1 in 293T WT cells
  degradation of Rpb1: leads to the degradation of the Rpb1 subunit
[4]
  Maximum serum levels: 58.5 ng/mL
  Maximum serum levels (molar): ~0.16 mM
HepG2
  effect of hypoxia on anti-proliferative effect: showed resistance upon hypoxia
[5]
  Rpb1 level: Rpb1 levels resemble DMSO control

Source: patent US20230134986A1, “GLUCOSE TRIPTOLIDE CONJUGATES AND USES THEREOF” (The Johns Hopkins University, priority 2020, published 2023)
